# Assay results as given in patent EP0125420B1, “Water soluble dispersions of chlorthalidone and process for preparing them” (Boehringer Ingelheim Pharmaceuticals Inc., priority 1983, dated 1984).
# Assays:
# [1] = water; cited from earlier work
# [2] = stability of the solution to ether formation; assay type: physicochemical; conditions: chlorthalidone added to solution of polymeric carrier in C1-C4 alkanol
# Description: The polymeric carrier polyvinylpyrrolidone (PVP), used in the process of the invention must be pharmaceutically acceptable and be substantially soluble both in water and in the particular Cl-C4 alkanol selected for use in the process. Moreover, the polymeric carrier must be capable of forming a solid state dispersion of chlorthalidone after removal of the alkanol, and be capable of suppressing ether formation arising from reaction of the chlorthalidone with the Cl-C4 alkanol, as discussed above. The ability of a polymeric carrier to suppress ether formation can be determined routinely by dissolving chlorthalidone in a Cl-C4 alkanol, such as methanol, in a glass container in the presence and absence of the polymeric carrier and analyzing aliquots of the solution (taken at varying times up to 24 hours) for chlorthalidone content by HPLC techniques. An acceptable loss of chlorthalidone is up to about 2% after 24 hours at 40°C. The general use of polyvinylpyrrolidone (PVP), to prepare solid state dispersions of pharmaceutical active ingredients is described by the Chiou reference, supra. […] It is believed that PVP suppresses the formation of ethers primarily by complexing trace amounts of heavy metal ions thus making them unavailable for catalysis. […]
# [3] = physchem; assay type: physicochemical; conditions: organic solvent or mixture
# Description: The amount of the Cl-C4 alkanol employed in the process of the invention should be sufficient to solubilize both the polymeric carrier and chlorthalidone. It will be apparent to those skilled in the art that best results will be achieved on a large scale using as high a concentration of chlorthalidone as is possible. Thus, optimally the process should be carried out using concentrations of chlorthalidone at the upper limits of solubility.
structure (smiles),measurement,setting,value
NS(=O)(=O)c1cc(C2(O)NC(=O)c3ccccc32)ccc1Cl (stereo not drawn) [Chlorthalidone],aqueous solubility,[1],~0.12 mg/mL
same,stable to ether formation,[2]; continued heating,at least one hour
same,stable to ether formation,[2]; room temperature,at least four days
same,solubility thermodynamic,[3]; ethanol,15.5 mg/mL
same,solubility thermodynamic,[3]; isopropanol,3.2 mg/mL
same,solubility thermodynamic,[3]; methanol,76.1 mg/mL
